Results on 37 molecules are retold here after patent US20140120083A1, “TREATMENT OF CANCERS USING PI3 KINASE ISOFORM MODULATORS” (INFINITY PHARMACEUTICALS, INC., priority 2012, published 2014).

Assay type in all cases: biochemical
The target of one test is PI3K δ (Homo sapiens, UniProt O00329). As to the kind of experiment: In vitro IC50, PI3K δ. On the set-up: purchased Upstate. The source says: (§1) An exemplary system is PI 3-Kinase (human) HTRF™ Assay from Upstate.
For a further test, the target named is T1, PI3K α (Homo sapiens, UniProt P42336).
T1 construct: purchased Upstate
T1 sequence (P42336 whole entry): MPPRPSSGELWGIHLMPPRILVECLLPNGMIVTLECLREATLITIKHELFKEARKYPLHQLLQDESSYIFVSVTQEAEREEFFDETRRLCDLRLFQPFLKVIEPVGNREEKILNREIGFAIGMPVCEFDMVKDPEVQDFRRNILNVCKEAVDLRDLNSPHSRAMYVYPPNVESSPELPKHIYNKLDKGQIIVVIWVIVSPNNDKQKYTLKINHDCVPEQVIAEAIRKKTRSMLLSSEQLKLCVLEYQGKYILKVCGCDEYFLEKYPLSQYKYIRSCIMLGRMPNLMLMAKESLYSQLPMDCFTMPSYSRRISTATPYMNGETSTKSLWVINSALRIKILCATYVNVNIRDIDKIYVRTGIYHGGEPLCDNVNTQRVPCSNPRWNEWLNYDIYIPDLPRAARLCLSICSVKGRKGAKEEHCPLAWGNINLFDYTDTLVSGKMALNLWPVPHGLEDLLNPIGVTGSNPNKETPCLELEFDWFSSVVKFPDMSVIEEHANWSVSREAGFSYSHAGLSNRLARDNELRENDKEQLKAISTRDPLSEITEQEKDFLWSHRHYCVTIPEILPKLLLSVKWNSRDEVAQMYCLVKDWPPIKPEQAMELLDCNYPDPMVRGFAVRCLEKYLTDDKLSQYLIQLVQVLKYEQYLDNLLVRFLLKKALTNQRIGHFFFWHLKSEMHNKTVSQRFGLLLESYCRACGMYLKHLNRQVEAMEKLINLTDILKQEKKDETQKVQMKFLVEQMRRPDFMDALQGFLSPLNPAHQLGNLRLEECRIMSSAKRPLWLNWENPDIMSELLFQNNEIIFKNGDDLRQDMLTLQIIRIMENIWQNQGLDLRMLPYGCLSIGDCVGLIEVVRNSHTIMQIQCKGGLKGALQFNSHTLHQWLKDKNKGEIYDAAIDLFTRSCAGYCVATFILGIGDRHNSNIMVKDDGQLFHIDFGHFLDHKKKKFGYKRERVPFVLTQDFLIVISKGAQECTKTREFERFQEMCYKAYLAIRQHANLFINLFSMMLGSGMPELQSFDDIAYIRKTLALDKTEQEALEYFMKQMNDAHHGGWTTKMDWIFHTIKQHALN
T1 sequence (P27986 whole entry partner): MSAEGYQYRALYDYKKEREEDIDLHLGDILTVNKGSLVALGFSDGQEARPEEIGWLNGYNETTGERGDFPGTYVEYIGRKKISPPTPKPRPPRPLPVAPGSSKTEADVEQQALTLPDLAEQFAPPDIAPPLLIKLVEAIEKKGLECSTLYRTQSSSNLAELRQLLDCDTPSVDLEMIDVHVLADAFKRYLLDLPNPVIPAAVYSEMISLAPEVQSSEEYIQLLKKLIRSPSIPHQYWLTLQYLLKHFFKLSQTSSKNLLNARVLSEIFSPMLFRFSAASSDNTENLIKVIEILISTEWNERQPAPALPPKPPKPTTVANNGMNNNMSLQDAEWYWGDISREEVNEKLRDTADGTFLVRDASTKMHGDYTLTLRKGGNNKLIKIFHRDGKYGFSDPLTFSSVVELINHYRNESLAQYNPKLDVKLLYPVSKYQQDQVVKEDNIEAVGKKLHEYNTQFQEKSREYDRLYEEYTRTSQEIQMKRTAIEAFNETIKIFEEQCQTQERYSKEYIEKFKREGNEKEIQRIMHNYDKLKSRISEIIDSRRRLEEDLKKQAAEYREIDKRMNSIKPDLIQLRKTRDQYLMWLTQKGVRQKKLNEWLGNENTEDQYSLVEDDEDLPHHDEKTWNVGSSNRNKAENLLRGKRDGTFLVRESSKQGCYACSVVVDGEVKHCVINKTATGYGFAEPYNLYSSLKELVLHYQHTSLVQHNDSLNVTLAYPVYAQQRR
As to the kind of experiment: In vitro IC50, PI3K α.
Excerpt: as §1

A further test addresses T2, PI3K γ (Homo sapiens, UniProt P48736).
T2 construct: purchased Sigma
Kind of test: In vitro IC50, PI3K γ.
Excerpt: as §1

Another test deals with PI3K β (Homo sapiens, UniProt P42338). As to the kind of experiment: In vitro IC50, PI3K β.
Sequence of PI3K β (P42338 whole entry): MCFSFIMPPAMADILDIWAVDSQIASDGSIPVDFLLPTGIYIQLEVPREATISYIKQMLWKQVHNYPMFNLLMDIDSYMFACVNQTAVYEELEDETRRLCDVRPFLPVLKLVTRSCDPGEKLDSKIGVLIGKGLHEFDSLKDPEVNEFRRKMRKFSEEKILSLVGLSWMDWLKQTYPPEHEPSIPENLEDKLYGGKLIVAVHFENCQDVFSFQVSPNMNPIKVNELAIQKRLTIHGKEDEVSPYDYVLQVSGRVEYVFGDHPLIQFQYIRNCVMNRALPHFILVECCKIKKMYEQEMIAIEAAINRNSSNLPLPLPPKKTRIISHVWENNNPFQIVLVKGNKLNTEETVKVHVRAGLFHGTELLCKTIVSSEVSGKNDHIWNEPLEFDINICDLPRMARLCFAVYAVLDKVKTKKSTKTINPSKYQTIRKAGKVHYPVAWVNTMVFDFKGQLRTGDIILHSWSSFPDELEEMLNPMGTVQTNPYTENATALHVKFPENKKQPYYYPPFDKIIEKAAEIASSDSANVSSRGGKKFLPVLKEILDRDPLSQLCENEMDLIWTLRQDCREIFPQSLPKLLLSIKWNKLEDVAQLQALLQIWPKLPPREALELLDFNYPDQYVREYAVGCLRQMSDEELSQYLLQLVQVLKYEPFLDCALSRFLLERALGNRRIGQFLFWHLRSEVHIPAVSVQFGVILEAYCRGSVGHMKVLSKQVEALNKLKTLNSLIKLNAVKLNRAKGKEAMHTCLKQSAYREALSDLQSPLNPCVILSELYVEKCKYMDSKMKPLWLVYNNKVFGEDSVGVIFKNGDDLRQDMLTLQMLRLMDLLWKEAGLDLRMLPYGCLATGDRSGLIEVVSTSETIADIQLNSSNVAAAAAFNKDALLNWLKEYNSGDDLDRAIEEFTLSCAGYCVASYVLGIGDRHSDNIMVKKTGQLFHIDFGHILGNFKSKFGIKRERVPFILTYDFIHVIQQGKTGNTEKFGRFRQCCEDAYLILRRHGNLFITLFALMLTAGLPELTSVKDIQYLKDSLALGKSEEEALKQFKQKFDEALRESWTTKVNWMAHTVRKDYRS
Excerpt: as §1

T2 sequence (P48736 whole entry): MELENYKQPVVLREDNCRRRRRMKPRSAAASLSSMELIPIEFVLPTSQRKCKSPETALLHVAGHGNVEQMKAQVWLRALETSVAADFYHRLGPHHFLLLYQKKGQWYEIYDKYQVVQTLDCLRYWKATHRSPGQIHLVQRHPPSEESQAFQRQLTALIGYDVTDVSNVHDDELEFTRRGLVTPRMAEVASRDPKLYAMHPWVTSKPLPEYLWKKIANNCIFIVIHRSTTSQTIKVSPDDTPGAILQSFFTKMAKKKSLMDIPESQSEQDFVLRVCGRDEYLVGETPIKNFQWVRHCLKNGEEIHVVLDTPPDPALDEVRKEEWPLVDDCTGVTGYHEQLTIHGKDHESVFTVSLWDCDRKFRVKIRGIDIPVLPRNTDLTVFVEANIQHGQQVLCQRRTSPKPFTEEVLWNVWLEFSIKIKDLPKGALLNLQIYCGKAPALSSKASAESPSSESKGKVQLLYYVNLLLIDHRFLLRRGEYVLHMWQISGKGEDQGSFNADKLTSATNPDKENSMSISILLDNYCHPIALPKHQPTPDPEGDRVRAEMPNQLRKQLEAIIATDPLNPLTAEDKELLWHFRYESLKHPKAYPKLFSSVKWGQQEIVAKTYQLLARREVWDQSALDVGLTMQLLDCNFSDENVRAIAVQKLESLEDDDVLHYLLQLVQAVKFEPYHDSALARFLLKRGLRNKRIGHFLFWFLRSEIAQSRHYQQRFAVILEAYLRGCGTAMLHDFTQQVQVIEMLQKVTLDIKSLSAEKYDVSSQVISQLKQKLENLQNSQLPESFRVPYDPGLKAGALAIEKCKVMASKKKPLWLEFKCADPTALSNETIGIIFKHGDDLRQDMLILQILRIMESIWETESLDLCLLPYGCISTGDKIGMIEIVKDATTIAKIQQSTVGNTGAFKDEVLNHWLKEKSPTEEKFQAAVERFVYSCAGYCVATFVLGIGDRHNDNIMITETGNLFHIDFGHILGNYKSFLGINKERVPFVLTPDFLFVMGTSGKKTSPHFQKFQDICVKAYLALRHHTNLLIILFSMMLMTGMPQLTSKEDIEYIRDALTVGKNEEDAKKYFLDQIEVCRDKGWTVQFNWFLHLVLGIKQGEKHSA
Sequence of PI3K δ (O00329 whole entry): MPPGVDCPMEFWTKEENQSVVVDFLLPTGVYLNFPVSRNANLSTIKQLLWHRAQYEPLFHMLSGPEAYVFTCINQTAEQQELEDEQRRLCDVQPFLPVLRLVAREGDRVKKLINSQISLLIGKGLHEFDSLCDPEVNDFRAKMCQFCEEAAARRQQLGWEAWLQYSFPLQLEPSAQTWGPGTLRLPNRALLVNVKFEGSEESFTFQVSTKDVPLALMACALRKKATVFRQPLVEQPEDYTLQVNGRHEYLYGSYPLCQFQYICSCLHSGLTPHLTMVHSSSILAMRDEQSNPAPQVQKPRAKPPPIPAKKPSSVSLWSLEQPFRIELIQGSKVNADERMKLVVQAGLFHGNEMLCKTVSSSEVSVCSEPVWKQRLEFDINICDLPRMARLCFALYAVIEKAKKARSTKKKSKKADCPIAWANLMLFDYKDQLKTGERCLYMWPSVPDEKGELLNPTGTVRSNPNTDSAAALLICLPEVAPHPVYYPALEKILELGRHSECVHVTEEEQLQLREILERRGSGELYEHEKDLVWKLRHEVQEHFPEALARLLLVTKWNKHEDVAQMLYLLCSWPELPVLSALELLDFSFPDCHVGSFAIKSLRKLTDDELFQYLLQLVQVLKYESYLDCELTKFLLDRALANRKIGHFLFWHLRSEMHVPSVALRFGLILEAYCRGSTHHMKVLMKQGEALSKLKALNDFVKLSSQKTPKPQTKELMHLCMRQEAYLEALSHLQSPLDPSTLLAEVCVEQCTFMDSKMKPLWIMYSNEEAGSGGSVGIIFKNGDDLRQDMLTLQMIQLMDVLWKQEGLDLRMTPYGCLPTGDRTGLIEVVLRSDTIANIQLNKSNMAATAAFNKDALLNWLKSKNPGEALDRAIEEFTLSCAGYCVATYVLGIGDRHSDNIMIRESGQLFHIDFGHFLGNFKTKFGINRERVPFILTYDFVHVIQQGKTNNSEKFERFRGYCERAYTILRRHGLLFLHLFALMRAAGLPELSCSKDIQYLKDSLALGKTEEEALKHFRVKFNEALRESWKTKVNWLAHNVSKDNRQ
Sequence of PI3K δ (P27986 whole entry partner): as the sequence (P27986 whole entry partner) above

Turning to `Cc1ccccc1-n1c(Cn2nc(-c3cnn(C)c3)c3c(N)ncnc32)cc2cccc(C)c2c1=O` [Compound 165], the IC50 is below 10 µM on PI3K δ, above 10 µM against PI3K α, below 1 µM on PI3K γ and above 10 µM against PI3K β.
Take `Cc1ccccc1-n1c(Cn2nc(-c3ccc4nc(N)sc4c3)c3c(N)ncnc32)cc2cccc(C)c2c1=O` [Compound 145]: the concentration for half-maximal inhibition (IC50) at PI3K δ is below 0.1 µM; against PI3K α, below 1 µM; on PI3K γ, below 0.1 µM; against PI3K β, below 10 µM.
In the case of `Cc1cccc2cc([C@H](C)Nc3ncnc4[nH]c(Cl)nc34)n(-c3ccccc3)c(=O)c12` [Compound 261], the IC50 against PI3K δ is above 10 µM; at PI3K α, above 10 µM; against PI3K γ, below 10 µM; against PI3K β, above 10 µM.
With `Cc1cccc2cc(C(C)Nc3ncnc4[nH]cnc34)n(-c3c(F)cccc3F)c(=O)c12` (stereo not shown) [Compound 216], the IC50 against PI3K δ was below 0.1 µM; against PI3K α, above 10 µM; at PI3K γ it was below 1 µM; on PI3K β, above 10 µM.
`Cc1cccc2cc([C@H](C)Nc3nc(Cl)nc4[nH]cnc34)n(C3CC3)c(=O)c12` [Compound 268]: the IC50 is below 0.1 µM against PI3K δ, above 10 µM on PI3K α, below 1 µM at PI3K γ and below 0.1 µM at PI3K β.
For `Cc1cccc2cc([C@H](C)Nc3ncnc4[nH]cc(F)c34)n(-c3ccccc3)c(=O)c12` [Compound 254], the IC50 was below 0.1 µM against PI3K δ, below 10 µM against PI3K α, below 0.1 µM against PI3K γ and below 0.1 µM against PI3K β.
Consider `Cc1cccc2cc(Cn3nc(-c4cccc(O)c4)c4c(N)ncnc43)n(-c3ccccc3C(C)C)c(=O)c12` [Compound 82], for which the IC50 on PI3K δ was below 0.1 µM; at PI3K α it was above 10 µM; at PI3K γ, below 0.1 µM; against PI3K β it was below 1 µM.
For the molecule `Cc1cccc2cc([C@H](C)Nc3ncnc4ccccc34)n(-c3ccccc3)c(=O)c12` [Compound 238], the half-maximal inhibitory concentration (IC50) was below 0.1 µM against PI3K δ, above 10 µM against PI3K α, below 1 µM against PI3K γ and above 10 µM against PI3K β.
In the case of `Cc1ccccc1-n1c(Cn2nc(-c3cccc(Cl)c3)c3c(N)ncnc32)cc2cccc(C)c2c1=O` [Compound 39], the IC50 against PI3K δ is below 10 µM; on PI3K α, above 10 µM; on PI3K γ, below 1 µM; on PI3K β it was above 10 µM.
With `Cc1cccc2cc([C@H](C)Nc3ncnc4[nH]cnc34)n(-c3cccc(F)c3)c(=O)c12` [Compound 290], the IC50 against PI3K δ is below 0.1 µM; against PI3K α it was above 10 µM; on PI3K γ, below 0.1 µM; at PI3K β it was below 1 µM.
Consider `Cc1cccc2cc(Cn3nc(-c4cc(O)cc(F)c4)c4c(N)ncnc43)n(-c3ccccc3)c(=O)c12` [Compound 147], for which the half-maximal inhibitory concentration (IC50) on PI3K δ is below 0.1 µM; on PI3K α, below 1 µM; against PI3K γ it was below 0.1 µM; against PI3K β, below 10 µM.
For `Cc1cccc2cc([C@H](C)Nc3cc(N)nc(N)n3)n(-c3ccccc3)c(=O)c12` [Compound 286], the IC50 against PI3K δ was below 1 µM; against PI3K α, above 10 µM; on PI3K γ, below 1 µM; against PI3K β, above 10 µM.
On to `Cc1ccccc1-n1c(Cn2nc(/C=C/C(=O)N3CCOCC3)c3c(N)ncnc32)cc2cccc(C)c2c1=O` [Compound 192], for which the IC50 is below 1 µM against PI3K δ, above 10 µM on PI3K α, above 10 µM against PI3K γ and above 10 µM against PI3K β.
For the molecule `CCC(Nc1ncnc2[nH]cnc12)c1cc2cccc(C)c2c(=O)n1C1CCC1` (stereo not shown) [Compound 212], the IC50 at PI3K δ was below 0.1 µM; against PI3K α it was above 10 µM; at PI3K γ, below 1 µM; against PI3K β, below 10 µM.
Consider `Cc1cccc2cc([C@H](C)Nc3ncnc4[nH]cc(C#N)c34)n(-c3ccccc3)c(=O)c12` [Compound 264], for which the IC50 was below 0.1 µM at PI3K δ, below 1 µM against PI3K α, below 0.1 µM against PI3K γ and below 0.1 µM on PI3K β.
Take `Cc1ccccc1-n1c(Cn2nc(C#N)c3c(N)ncnc32)cc2cccc(C)c2c1=O` [Compound 170]: the 50% inhibitory concentration (IC50) on PI3K δ is below 0.1 µM; on PI3K α it was above 10 µM; against PI3K γ, below 10 µM; at PI3K β, above 10 µM.
For `Cc1cccc2cc([C@H](C)Nc3cc(N)nc(Cl)n3)n(C3CC3)c(=O)c12` [Compound 283], the IC50 on PI3K δ, at PI3K α, against PI3K γ and against PI3K β was above 10 µM in each case.
In the case of `CC(=O)Nc1nc2cc(-c3nn(Cc4cc5cccc(C)c5c(=O)n4-c4ccccc4C)c4ncnc(N)c34)ccc2s1` [Compound 274], the IC50 at PI3K δ was below 1 µM; on PI3K α, above 10 µM; against PI3K γ, below 10 µM; at PI3K β, below 10 µM.
Turning to `Cc1ccccc1-n1c(Cn2nc(-c3ccc(F)c(O)c3)c3c(N)ncnc32)cc2cccc(C)c2c1=O` [Compound 12], the IC50 was below 0.1 µM on PI3K δ, above 10 µM on PI3K α, below 0.1 µM against PI3K γ and below 10 µM at PI3K β.
Regarding `CC(=O)Nc1nc2ccc(-c3nn(Cc4cc5cccc(C)c5c(=O)n4-c4ccccc4C)c4ncnc(N)c34)cc2o1` [Compound 266], the 50% inhibitory concentration (IC50) on PI3K δ was below 0.1 µM; at PI3K α, above 10 µM; against PI3K γ, below 0.1 µM; against PI3K β, above 10 µM.
As for `Cc1cccc2cc([C@H](C)Nc3ncnc4[nH]ccc34)n(C3CC3)c(=O)c12` [Compound 273], the IC50 against PI3K δ was below 0.1 µM; against PI3K α, below 10 µM; at PI3K γ, below 0.1 µM; at PI3K β it was below 0.1 µM.
For `Cc1cccc2cc(Cn3nc(-c4ccc(O)cc4)c4c(N)ncnc43)n(-c3ccccc3F)c(=O)c12` [Compound 46], the IC50 against PI3K δ was below 10 µM; against PI3K α it was above 10 µM; on PI3K γ, below 1 µM; against PI3K β it was above 10 µM.
On to `Cc1cccc2cc([C@H](C)Nc3nc(N)ncc3Cl)n(-c3ccccc3)c(=O)c12` [Compound 249], for which the IC50 is below 0.1 µM against PI3K δ, above 10 µM against PI3K α, below 0.1 µM at PI3K γ and below 10 µM at PI3K β.
`Cc1cccc2cc(Cn3nc(C#C[C@@H](C)O)c4c(N)ncnc43)n(-c3ccccc3C(C)C)c(=O)c12` [Compound 83]: the IC50 was below 0.1 µM against PI3K δ, above 10 µM against PI3K α, below 0.1 µM against PI3K γ and below 10 µM at PI3K β.
For `Cc1cccc2cc(Cn3nc(-c4ccn[nH]4)c4c(N)ncnc43)n(-c3ccccc3F)c(=O)c12` [Compound 183], the IC50 against PI3K δ was below 1 µM; against PI3K α, above 10 µM; at PI3K γ, below 10 µM; on PI3K β it was above 10 µM.
Consider `Cc1cccc2cc([C@H](C)Nc3ncnc4[nH]cc(Br)c34)n(-c3ccccc3)c(=O)c12` [Compound 257], for which the IC50 was below 0.1 µM at PI3K δ, below 1 µM against PI3K α, below 0.1 µM against PI3K γ and below 0.1 µM against PI3K β.
For `CC(Nc1ncnc2[nH]cnc12)c1cc2ccccc2c(=O)n1-c1ccccc1` (stereo not shown) [Compound 220], the IC50 is below 0.1 µM at PI3K δ, above 10 µM against PI3K α, below 1 µM against PI3K γ and below 10 µM against PI3K β.
The like results for `Cc1cccc2cc([C@H](C)Nc3cc(N)nc(Cl)n3)n(-c3ccccc3)c(=O)c12` [Compound 285] were, in that order, below 1 µM, above 10 µM, below 10 µM and above 10 µM.
Turning to `Cc1cccc2cc(Cn3nc(-c4cc(O)cc(F)c4)c4c(N)ncnc43)n(-c3ccccc3O)c(=O)c12` [Compound 90], the 50% inhibitory concentration (IC50) against PI3K δ was below 0.1 µM; at PI3K α, below 10 µM; against PI3K γ, below 0.1 µM; against PI3K β, below 1 µM.
For `Cc1cccc2cc([C@H](C)Nc3ncnc4[nH]cc(C(N)=O)c34)n(C3CC3)c(=O)c12` [Compound 287], the concentration for half-maximal inhibition (IC50) at PI3K δ is below 0.1 µM; at PI3K α it was below 1 µM; on PI3K γ it was below 0.1 µM; at PI3K β it was below 0.1 µM.
Regarding `COc1ccccc1-n1c(Cn2nc(I)c3c(N)ncnc32)cc2cccc(C)c2c1=O` [Compound 70], the IC50 against PI3K δ was below 0.1 µM; against PI3K α, above 10 µM; on PI3K γ it was below 1 µM; at PI3K β it was above 10 µM.
In the case of `Cc1cccc2cc(Cn3nc(C#C[C@@H](C)O)c4c(N)ncnc43)n(C3CCCC3)c(=O)c12` [Compound 65], the IC50 at PI3K δ is below 0.1 µM; on PI3K α, above 10 µM; on PI3K γ, below 10 µM; against PI3K β, below 10 µM.
`Cc1cccc2cc(Cn3nc(C#CCO)c4c(N)ncnc43)n(-c3ccccc3F)c(=O)c12` [Compound 8]: the IC50 at PI3K δ is below 0.1 µM; at PI3K α, above 10 µM; against PI3K γ, below 1 µM; at PI3K β, above 10 µM.
Regarding `Cc1ccccc1-n1c(Cn2nc(-c3cccc(O)c3)c3c(N)ncnc32)cc2cccc(F)c2c1=O` [Compound 59], the IC50 is below 0.1 µM on PI3K δ, above 10 µM against PI3K α, below 0.1 µM against PI3K γ and above 10 µM at PI3K β.
As for `Cc1cccc2cc([C@H](C)Nc3ncnc4[nH]cc(C(N)=O)c34)n(-c3ccccc3)c(=O)c12` [Compound 288], the IC50 was below 0.1 µM against PI3K δ, below 1 µM on PI3K α, below 0.1 µM on PI3K γ and below 0.1 µM against PI3K β.
`Cc1ccccc1-n1c(Cn2nc(-c3nn[nH]n3)c3c(N)ncnc32)cc2cccc(C)c2c1=O` [Compound 207]: the IC50 is below 0.1 µM at PI3K δ, below 10 µM against PI3K α, below 0.1 µM on PI3K γ and below 10 µM against PI3K β.
Take `Cc1cccc2cc(Cn3nc(-c4cccc(O)c4)c4c(N)ncnc43)n(C(C)C)c(=O)c12` [Compound 62]: the IC50 was below 0.1 µM at PI3K δ, above 10 µM at PI3K α, below 0.1 µM on PI3K γ and below 1 µM against PI3K β.
